Experimental data reported in the NIST ThermoML archive (doi:10.1021/je900757k).

Test: isobaric coefficient of expansion
Conditions: Liquid, DSC

CCCCCCCCCCCC [dodecane]
isobaric coefficient of expansion
Conditions	278.15 K	288.15 K	298.15 K	308.15 K	318.15 K	328.15 K	338.15 K	348.15 K
5000 kPa	0.000913 1/K	0.000925 1/K	0.00094 1/K	0.000953 1/K	0.000964 1/K	0.000975 1/K	0.000989 1/K	0.000999 1/K
10000 kPa	0.000896 1/K	0.000902 1/K	0.000916 1/K	0.000924 1/K	0.000932 1/K	0.000941 1/K	0.00095 1/K	0.000958 1/K
15000 kPa	0.000874 1/K	0.000881 1/K	0.000893 1/K	0.000899 1/K	0.000908 1/K	0.000913 1/K	0.000918 1/K	0.000921 1/K
20000 kPa	0.000854 1/K	0.00086 1/K	0.000869 1/K	0.000874 1/K	0.000876 1/K	0.000884 1/K	0.000888 1/K	0.000891 1/K
25000 kPa	0.000838 1/K	0.000842 1/K	0.000848 1/K	0.00085 1/K	0.000851 1/K	0.000859 1/K	0.000863 1/K	0.000863 1/K
30000 kPa	0.000821 1/K	0.000826 1/K	0.000827 1/K	0.000831 1/K	0.000831 1/K	0.000835 1/K	0.000838 1/K	0.000837 1/K
35000 kPa	0.000805 1/K	0.000806 1/K	0.000807 1/K	0.00081 1/K	0.000809 1/K	0.000813 1/K	0.000815 1/K	0.000813 1/K
40000 kPa	0.000786 1/K	0.00079 1/K	0.000788 1/K	0.000792 1/K	0.000787 1/K	0.000791 1/K	0.000788 1/K	0.00079 1/K
45000 kPa	0.000772 1/K	0.000778 1/K	0.000775 1/K	0.000773 1/K	0.000768 1/K	0.000774 1/K	0.000773 1/K	0.00077 1/K
50000 kPa	0.00076 1/K	0.000761 1/K	0.00076 1/K	0.000755 1/K	0.000754 1/K	0.000757 1/K	0.000754 1/K	0.000753 1/K
55000 kPa	0.000751 1/K	0.000745 1/K	0.000744 1/K	0.000745 1/K	0.000739 1/K	0.000742 1/K	0.00074 1/K	0.000737 1/K

CCCCCCCCC [nonane]
isobaric coefficient of expansion
Conditions	278.15 K	288.15 K	298.15 K	308.15 K	318.15 K	328.15 K	338.15 K	348.15 K
5000 kPa	0.001 1/K	0.00103 1/K	0.00105 1/K	0.00106 1/K	0.00108 1/K	0.0011 1/K	0.00113 1/K	0.00114 1/K
10000 kPa	0.000977 1/K	0.000997 1/K	0.00101 1/K	0.00103 1/K	0.00104 1/K	0.00106 1/K	0.00108 1/K	0.00109 1/K
15000 kPa	0.000954 1/K	0.000967 1/K	0.000984 1/K	0.000995 1/K	0.00101 1/K	0.00102 1/K	0.00103 1/K	0.00104 1/K
20000 kPa	0.000928 1/K	0.00094 1/K	0.000955 1/K	0.000962 1/K	0.00097 1/K	0.000984 1/K	0.000992 1/K	0.000998 1/K
25000 kPa	0.000907 1/K	0.000917 1/K	0.000927 1/K	0.000935 1/K	0.000941 1/K	0.000949 1/K	0.00096 1/K	0.000964 1/K
30000 kPa	0.000886 1/K	0.000898 1/K	0.000903 1/K	0.000912 1/K	0.000915 1/K	0.000921 1/K	0.000931 1/K	0.000931 1/K
35000 kPa	0.000868 1/K	0.000875 1/K	0.000878 1/K	0.000883 1/K	0.000889 1/K	0.000892 1/K	0.000899 1/K	0.0009 1/K
40000 kPa	0.000841 1/K	0.000853 1/K	0.000856 1/K	0.00086 1/K	0.000864 1/K	0.000865 1/K	0.000866 1/K	0.000869 1/K
45000 kPa	0.000827 1/K	0.000836 1/K	0.000839 1/K	0.000838 1/K	0.000841 1/K	0.000843 1/K	0.000846 1/K	0.000844 1/K
50000 kPa	0.000811 1/K	0.000819 1/K	0.000819 1/K	0.00082 1/K	0.000825 1/K	0.000822 1/K	0.000825 1/K	0.000823 1/K
55000 kPa	0.000803 1/K	0.000799 1/K	0.000803 1/K	0.000804 1/K	0.000806 1/K	0.000803 1/K	0.000807 1/K	0.000806 1/K

CCCCCCCCCCCCCCC [pentadecane]
isobaric coefficient of expansion
Conditions	298.15 K	308.15 K	318.15 K	328.15 K	338.15 K	348.15 K
5000 kPa	0.000896 1/K	0.000898 1/K	0.000901 1/K	0.000904 1/K	0.000914 1/K	0.000925 1/K
10000 kPa	0.000871 1/K	0.000873 1/K	0.000873 1/K	0.000873 1/K	0.000883 1/K	0.000886 1/K
15000 kPa	0.000848 1/K	0.000848 1/K	0.00085 1/K	0.000846 1/K	0.000846 1/K	0.000854 1/K
20000 kPa	0.000825 1/K	0.000824 1/K	0.000824 1/K	0.000823 1/K	0.000821 1/K	0.000826 1/K
25000 kPa	0.000805 1/K	0.000803 1/K	0.000803 1/K	0.000798 1/K	0.000798 1/K	0.000801 1/K
30000 kPa	0.000793 1/K	0.000786 1/K	0.000786 1/K	0.000781 1/K	0.000782 1/K	0.000783 1/K
35000 kPa	0.000772 1/K	0.000767 1/K	0.000764 1/K	0.000762 1/K	0.00076 1/K	0.000758 1/K
40000 kPa	0.000756 1/K	0.000751 1/K	0.000746 1/K	0.000744 1/K	0.000738 1/K	0.000737 1/K
45000 kPa	0.000742 1/K	0.000734 1/K	0.000731 1/K	0.000726 1/K	0.000724 1/K	0.00072 1/K
50000 kPa	0.00073 1/K	0.000721 1/K	0.000718 1/K	0.00071 1/K	0.00071 1/K	0.000705 1/K
55000 kPa	0.000717 1/K	0.000709 1/K	0.000705 1/K	0.000699 1/K	0.000697 1/K	0.000694 1/K
